What was measured:
Test in all cases: relative viability (nuclei count vs DMSO), 5 days (fraction); higher = more cells survive
ABC-1 = tested on: ABC-1
Summary of the method: (§1)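 Lung cancer cell lines were pin-tool dosed in 1536-well plates on the day after seeding, with either a lone drug or a fixed anchor-drug dose plus five library-drug doses (not always all listed) in √10 steps. Nuclei were counted on 4× images after 5 days. Relative viability is the ratio of treated-well to vehicle-well nuclei counts, with each value a median of duplicate plates.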

COR-L23 = tested on: COR-L23
Summary of the method: as §1

H3255 = tested on: H3255
Summary of the method: as §1

HCC-15 = tested on: HCC-15
Summary of the method: as §1

HCC-366 = tested on: HCC-366
Summary of the method: as §1

HCC-827 = tested on: HCC-827
Summary of the method: as §1

LC-2-ad = tested on: LC-2-ad
Summary of the method: as §1

LXF-289 = tested on: LXF-289
Summary of the method: as §1

NCI-H1437 = tested on: NCI-H1437
Summary of the method: as §1

NCI-H1666 = tested on: NCI-H1666
Summary of the method: as §1

NCI-H1975 = tested on: NCI-H1975
Summary of the method: as §1

NCI-H2009 = tested on: NCI-H2009
Summary of the method: as §1

NCI-H2085 = tested on: NCI-H2085
Summary of the method: as §1

NCI-H2087 = tested on: NCI-H2087
Summary of the method: as §1

NCI-H2228 = tested on: NCI-H2228
Summary of the method: as §1

NCI-H23 = tested on: NCI-H23
Summary of the method: as §1

NCI-H661 = tested on: NCI-H661
Summary of the method: as §1

PC-14 = tested on: PC-14
Summary of the method: as §1

PC-3 [JPC-3] = tested on: PC-3 [JPC-3]
Summary of the method: as §1

SK-MES-1 = tested on: SK-MES-1
Summary of the method: as §1

UMC-11 = tested on: UMC-11
Summary of the method: as §1

CN1CCN(CCOc2cc(OC3CCOCC3)c3c(Nc4c(Cl)ccc5c4OCO5)ncnc3c2)CC1 [Saracatinib] + CS(=O)(=O)CCNCc1ccc(-c2ccc3ncnc(Nc4ccc(OCc5cccc(F)c5)c(Cl)c4)c3c2)o1 [Lapatinib] (partner 2 µM)
relative viability (ABC-1; first compound 0.02 µM): 1.16
relative viability (ABC-1; first compound 0.2 µM): 0.921
relative viability (ABC-1; first compound 0.6325 µM): 1.08
relative viability (ABC-1; first compound 2 µM): 0.921
relative viability (COR-L23; first compound 0.02 µM): 0.947
relative viability (COR-L23; first compound 0.2 µM): 0.571
relative viability (COR-L23; first compound 0.6325 µM): 1.1
relative viability (COR-L23; first compound 2 µM): 0.897
relative viability (H3255; first compound 0.02 µM): 0.27
relative viability (H3255; first compound 0.2 µM): 0.241
relative viability (H3255; first compound 0.6325 µM): 0.271
relative viability (H3255; first compound 2 µM): 0.239
relative viability (HCC-15; first compound 0.02 µM): 0.859
relative viability (HCC-15; first compound 0.2 µM): 0.828
relative viability (HCC-15; first compound 0.6325 µM): 0.961
relative viability (HCC-15; first compound 2 µM): 0.854
relative viability (HCC-366; first compound 0.02 µM): 1.02
relative viability (HCC-366; first compound 0.6325 µM): 1.04
relative viability (HCC-366; first compound 2 µM): 0.707
relative viability (HCC-827; first compound 0.02 µM): 0.174
relative viability (HCC-827; first compound 0.2 µM): 0.202
relative viability (HCC-827; first compound 0.6325 µM): 0.199
relative viability (HCC-827; first compound 2 µM): 0.163
relative viability (LC-2-ad; first compound 0.02 µM): 1.06
relative viability (LC-2-ad; first compound 0.6325 µM): 0.998
relative viability (LC-2-ad; first compound 2 µM): 0.761
relative viability (LXF-289; first compound 0.02 µM): 0.95
relative viability (LXF-289; first compound 0.2 µM): 0.895
relative viability (LXF-289; first compound 0.6325 µM): 0.955
relative viability (LXF-289; first compound 2 µM): 0.901
relative viability (NCI-H1437; first compound 0.02 µM): 0.884
relative viability (NCI-H1437; first compound 0.2 µM): 0.841
relative viability (NCI-H1437; first compound 0.6325 µM): 0.783
relative viability (NCI-H1437; first compound 2 µM): 0.757
relative viability (NCI-H1666; first compound 0.02 µM): 0.686
relative viability (NCI-H1666; first compound 0.2 µM): 0.629
relative viability (NCI-H1666; first compound 0.6325 µM): 0.777
relative viability (NCI-H1666; first compound 2 µM): 0.872
relative viability (NCI-H1975; first compound 0.02 µM): 1.03
relative viability (NCI-H1975; first compound 0.6325 µM): 0.819
relative viability (NCI-H1975; first compound 2 µM): 0.687
relative viability (NCI-H2009; first compound 0.02 µM): 0.992
relative viability (NCI-H2009; first compound 0.2 µM): 0.889
relative viability (NCI-H2009; first compound 0.6325 µM): 1.06
relative viability (NCI-H2009; first compound 2 µM): 0.772
relative viability (NCI-H2085; first compound 0.02 µM): 0.802
relative viability (NCI-H2085; first compound 0.2 µM): 0.615
relative viability (NCI-H2085; first compound 0.6325 µM): 0.811
relative viability (NCI-H2085; first compound 2 µM): 0.725
relative viability (NCI-H2087; first compound 0.02 µM): 1.1
relative viability (NCI-H2087; first compound 0.2 µM): 1.03
relative viability (NCI-H2087; first compound 0.6325 µM): 1.25
relative viability (NCI-H2087; first compound 2 µM): 0.981
relative viability (NCI-H2228; first compound 0.02 µM): 1.35
relative viability (NCI-H2228; first compound 0.2 µM): 0.995
relative viability (NCI-H2228; first compound 0.6325 µM): 1.07
relative viability (NCI-H2228; first compound 2 µM): 0.674
relative viability (NCI-H23; first compound 0.02 µM): 1.13
relative viability (NCI-H23; first compound 0.6325 µM): 1.28
relative viability (NCI-H23; first compound 2 µM): 0.895
relative viability (NCI-H661; first compound 0.02 µM): 0.456
relative viability (NCI-H661; first compound 0.2 µM): 0.552
relative viability (NCI-H661; first compound 0.6325 µM): 0.633
relative viability (NCI-H661; first compound 2 µM): 0.37
relative viability (PC-14; first compound 0.02 µM): 0.334
relative viability (PC-14; first compound 0.2 µM): 0.26
relative viability (PC-14; first compound 0.6325 µM): 0.305
relative viability (PC-14; first compound 2 µM): 0.185
relative viability (PC-3 [JPC-3]; first compound 0.02 µM): 0.439
relative viability (PC-3 [JPC-3]; first compound 0.2 µM): 0.393
relative viability (PC-3 [JPC-3]; first compound 0.6325 µM): 0.43
relative viability (PC-3 [JPC-3]; first compound 2 µM): 0.402
relative viability (SK-MES-1; first compound 0.02 µM): 0.442
relative viability (SK-MES-1; first compound 0.2 µM): 0.425
relative viability (SK-MES-1; first compound 0.6325 µM): 0.47
relative viability (SK-MES-1; first compound 2 µM): 0.41
relative viability (UMC-11; first compound 0.02 µM): 0.931
relative viability (UMC-11; first compound 0.2 µM): 0.763
relative viability (UMC-11; first compound 0.6325 µM): 0.896
relative viability (UMC-11; first compound 2 µM): 0.78

Source: the supplement of paper PMC10307832
